Reference: PMC3431920 (Molecular bioSystems, 2012)

Legend:
MCF-7 cells = experiment: MTS cell viability assay, 24h treatment; type: cell-based; conditions: result in words
Water solubility = type: physicochemical; conditions: result in words; method not given

Row | water solubility (Water solubility) | SMILES | cytotoxicity (in words) (MCF-7 cells)
1 |  | N=C(N)NCCC[C@H](NC(=O)[C@H](CCCNC(=N)N)NC(=O)[C@H](CCCNC(=N)N)NC(=O)[C@H](CCCNC(=N)N)NC(=O)[C@H](CCCNC(=N)N)NC(=O)[C@H](CCCNC(=N)N)NC(=O)[C@H](CCCNC(=N)N)NC(=O)[C@H](CCCNC(=N)N)NC(=O)c1ccc2c(c1)C(=O)OC21c2ccc(O)cc2Oc2cc(O)ccc21)C(N)=O [Construct 1] | minor cytotoxicity
2 | good water solubility | C[C@@H](c1ccccc1)N(CC(N)=O)C(=O)CN(C(=O)CN(CCCCN)C(=O)CN(C(=O)CN(C(=O)CN(CCCCN)C(=O)CN(C(=O)CN(C(=O)CN(CCCCN)C(=O)CN(C(=O)CN(C(=O)CN(CCCCN)C(=O)c1ccc2c(c1)C(=O)OC21c2ccc(O)cc2Oc2cc(O)ccc21)[C@@H](C)c1ccccc1)[C@@H](C)c1ccccc1)[C@@H](C)c1ccccc1)[C@@H](C)c1ccccc1)[C@@H](C)c1ccccc1)[C@@H](C)c1ccccc1)[C@@H](C)c1ccccc1 [Construct 4] | 
